Measurements from patent publication US20250186405A1, “Compound For Use In Treating Narcolepsy” (Alkermes, Inc., priority 2023, published 2025).
Where two headings read alike, the source gives them in different places.

How the values were obtained:
[1] = Oral PK of micronized Compound A, powder-in-capsule vs tablet, two particle sizes; format: in vivo, male Beagle dogs; conditions: male, Beagle, dog, plasma
Procedure: A non-GLP study was conducted in male Beagle dogs to compare the Compound A plasma exposure of powder-in-capsule (PIC) versus tablet formulation after the administration of single oral doses of micronized Compound A. Two different particle sizes were tested with the following objectives: • 1. To compare the oral plasma exposure of micronized Compound A (12 micron Dv90 particle size) after the administration of 20 mg of Compound A powder-in-capsule vs 20 mg of Compound A in four tablets of 5 mg each. • 2. To compare the oral plasma exposure of 12 micron and 32 micron Dv90 particle size of 20 mg micronized Compound A administered in four tablets of 5 mg each. • 3. To evaluate the dose-linearity of Compound A by comparing the oral plasma exposure of Compound A following the oral administration of 5 mg (one tablet) versus 20 mg (four tablets) of Compound A.
The pharmacokinetic analysis of concentrations and concentration-time data are summarized in tabular form, below, using descriptive statistics. Concentration data were summarized according to nominal sampling times. Plasma concentrations below the lower limit of assay quantification (BLOQ) were not included in the computation of mean concentration values. Pharmacokinetic parameters for individual animals were estimated using the non-compartmental analysis (NCA) using Dotmatics Studies tool.
The absolute extravascular bioavailability (F %) were calculated using the following formula: F %= [(AUC0-∞(extravascular)×Dose(intravenous(IV)))/(AUC0-∞(intravenous(IV))×Dose(extravascular))]×100 Where the “extravascular” represents any of subcutaneous (SC), intraperitoneal (IP) or oral (PO) route of administration.
The F % is calculated for each subject in case the same animals were administered with both intravenous and extravascular dose, then the average is reported with the standard error; otherwise, F % is calculated using the mean values without reporting a standard deviation in case the subjects of intravenous and extravascular profiles are different. Pharmacokinetic parameters were summarized by dosing group, route of administration, formulation, etc. using descriptive statistics.

[2] = Part 1 SAD: plasma pharmacokinetics after single oral dose; format: in vivo, human; conditions: for CL/F / AUC(0-t) / Cmax / AUC(0-inf) / half-life / Vd/F / concentration at 8 h: geometric mean; for AUC(0-t) / Cmax / AUC(0-inf) / half-life / Vd/F / concentration at 8 h / Tmax: human, plasma; for Vd/F: read-out: Vz/F; for concentration at 8 h: read-out: C8 (concentration at 8-hour post dose)
Procedure: There were approximately 8 subjects per cohort. Dose levels were as follows:
Blood samples (up to 5 mL per sample) were collected for PK analysis of Compound A and its metabolite(s). The actual time of sample collection was recorded. The PK samples of the subjects randomized to placebo treatment were not analyzed. Any remaining plasma PK samples were used to explore the presence of any additional metabolites and/or biomarkers.
Plasma and urine concentrations of Compound A and its metabolite(s) were measured using a validated high-performance liquid chromatography with tandem mass spectrometry.
The plasma PK parameters of Compound A and its metabolite(s) were determined from the plasma concentration-time profiles for all evaluable subjects. Actual sampling times, rather than scheduled sampling times, were used in all computations involving sampling times. The below lower limit of quantitation concentrations were set to zero prior to PK parameter estimation.
The PK population was used for summaries of plasma Compound A and its metabolite(s) concentrations and for analyses, summaries, and listing of PK parameters. Dose proportionality for Cmax, AUC0-t, and AUC0-∞ was evaluated using a linear model of logarithmically transformed values to assess the slope parameter, and the 95% CI for the slope was estimated. Where the 95% CI of the slope includes 1, it was considered as evidence of dose proportionality for that PK parameter.

[3] = tested on: healthy adult subjects; assay: Part 3 RelBA with FE: safety; format: in vivo, human; conditions: 10 mg
Procedure: Part 3 compared the relative bioavailability (RelBA) of Compound A between a tablet formulation and the powder-in-capsule formulation. In addition, the food effect (FE) on the bioavailability of Compound A was assessed following administration of tablet formulation. Dose levels were as follows:
The Part 3 (RelBA with FE) evaluation was conducted using a 2-sequence, 3-period crossover study design in approximately 12 subjects. Subjects in Part 3 were randomized 1:1 to receive 1 of 2 sequences consisting of 3 periods with up to 72 hours of washout between treatments. The first 2 periods were dosed under fasted state and the third period was dosed in a fed state (high-fat meal).
In treatment period(s) under the fed condition, following overnight fast, all subjects were given a high-fat breakfast. Within 30 minutes of starting the consumption of the breakfast, the assigned treatment was administered. […] There was a 72-hour washout period between the treatments.

[4] = 1 mg single dose (low end of 1 to 50 mg)
[5] = 50 mg single dose (high end of 1 to 50 mg)

`CS(=O)(=O)N[C@H]1CCCN2C(=O)COc3ccccc3C3CCC(CC3)OCC12` (stereo partly drawn) [Compound A, N-[(4S,4aR,7α,10α)-1,2,3,4,4a,5,7,8,9,10,16,17-dodecahydro-17-oxo-7,10-ethanopyrido[1,2-d][1,7,4]benzodioxaazacyclotridecin-4-yl]methanesulfonamide] showed a bioavailability ([1]; 5 mg, one 5 mg tablet, 12 micron Dv90, read-out: Oral bioavailability (F %)) of 55%, a bioavailability ([1]; 20 mg, 20 mg PIC and 4 tablets of 5 mg, 12 and 32 micron Dv90, read-out: F % (absolute oral bioavailability), range) of 26 to 29% and a bioavailability ([1]; 20 mg, four 5 mg tablets (20 mg), 12 micron Dv90, read-out: Oral bioavailability (F %)) of 29%. The Tmax ([1]; 20 mg PIC and 4 tablets of 5 mg, 12 and 32 micron Dv90) was roughly 3 h, the AUC(0-inf) ([1]; 20 mg PIC and 4 tablets of 5 mg, 12 and 32 micron Dv90, read-out: AUC0-∞, range) was 1570 to 1730 ng·h/mL and the Cmax ([1]; 20 mg PIC and 4 tablets of 5 mg, 12 and 32 micron Dv90, read-out: Cmax, range) was 230 to 270 ng/mL. The half-life ([1]; 20 mg PIC and 4 tablets of 5 mg, 12 and 32 micron Dv90, read-out: terminal t1/2 (converted)) was roughly 3 h, the “geometric mean AUC0-inf/D” value [2, 4] was 11.6 and the “geometric mean Cmax/D” value [2, 4] was 3.2. It also gave a CL/F ([2]; 1 mg single dose, N = 5) of 86.0 L/h, a CL/F ([2]; 3 mg single dose, N = 3) of 95.6 L/h and a CL/F ([2]; 8 mg single dose, N = 4) of 96.4 L/h. For the same molecule, the CL/F ([2]; 15 mg single dose, N = 5) was 89.8 L/h, the CL/F ([2]; 25 mg single dose) was 91.1 L/h and the “geometric mean AUC0-inf/D” value [2, 5] was 10.1. The “geometric mean Cmax/D” value [2, 5] was 0.59, the CL/F ([2]; 50 mg single dose, N = 2) was 99.3 L/h and the AUC(0-t) ([2]; oral, 1 mg single dose) was 12.3 ng·h/mL. It also gave a Cmax ([2]; oral, 1 mg single dose) of 3.23 ng/mL, an AUC(0-inf) ([2]; oral, 1 mg single dose, N = 5) of 11.6 ng·h/mL and a half-life ([2]; oral, 1 mg single dose, N = 5) of 2.79 h. It also gave a Vd/F ([2]; oral, 1 mg single dose, N = 5) of 346 L, a concentration at 8 h ([2]; oral, 1 mg single dose) of 0.337 ng/mL and a Tmax ([2]; oral, 1 mg single dose, median, read-out: Tmax) of 1.5 h. The AUC(0-t) ([2]; oral, 3 mg single dose) was 36.6 ng·h/mL, the Cmax ([2]; oral, 3 mg single dose) was 6.15 ng/mL and the AUC(0-inf) ([2]; oral, 3 mg single dose, N = 3) was 31.4 ng·h/mL. For the same molecule, the half-life ([2]; oral, 3 mg single dose, N = 3) was 2.31 h, the Vd/F ([2]; oral, 3 mg single dose, N = 3) was 318 L and the concentration at 8 h ([2]; oral, 3 mg single dose) was 1.24 ng/mL. The Tmax ([2]; oral, 3 mg single dose, median, read-out: Tmax) was 1.5 h, the AUC(0-t) ([2]; oral, 8 mg single dose) was 81.3 ng·h/mL and the Cmax ([2]; oral, 8 mg single dose) was 11.5 ng/mL. The AUC(0-inf) ([2]; oral, 8 mg single dose, N = 4) was 83 ng·h/mL, the half-life ([2]; oral, 8 mg single dose, N = 4) was 16 h and the Vd/F ([2]; oral, 8 mg single dose, N = 4) was 2220 L. For the same molecule, the concentration at 8 h ([2]; oral, 8 mg single dose) was 2.47 ng/mL, the Tmax ([2]; oral, 8 mg single dose, median, read-out: Tmax) was 2 h and the AUC(0-t) ([2]; oral, 15 mg single dose) was 165 ng·h/mL. It also gave a Cmax ([2]; oral, 15 mg single dose) of 22.1 ng/mL, an AUC(0-inf) ([2]; oral, 15 mg single dose, N = 5) of 167 ng·h/mL and a half-life ([2]; oral, 15 mg single dose, N = 5) of 10.1 h. For the same molecule, the Vd/F ([2]; oral, 15 mg single dose, N = 5) was 1300 L, the concentration at 8 h ([2]; oral, 15 mg single dose) was 4.07 ng/mL and the Tmax ([2]; oral, 15 mg single dose, median, read-out: Tmax) was 2.5 h. The AUC(0-inf) ([2]; oral, 25 mg single dose) was 274 ng·h/mL, the AUC(0-t) ([2]; oral, 25 mg single dose) was 241 ng·h/mL and the Cmax ([2]; oral, 25 mg single dose) was 23.1 ng/mL. For the same molecule, the half-life ([2]; oral, 25 mg single dose) was 12.5 h, the concentration at 8 h ([2]; oral, 25 mg single dose) was 5.7 ng/mL and the Vd/F ([2]; oral, 25 mg single dose) was 1650 L. It also gave a Tmax ([2]; oral, 25 mg single dose, median, read-out: Tmax) of 1 h, an AUC(0-t) ([2]; oral, 50 mg single dose) of 357 ng·h/mL and a Cmax ([2]; oral, 50 mg single dose) of 29.3 ng/mL. For the same molecule, the AUC(0-inf) ([2]; oral, 50 mg single dose, N = 2) was 503 ng·h/mL, the half-life ([2]; oral, 50 mg single dose, N = 2) was 7.34 h and the Vd/F ([2]; oral, 50 mg single dose, N = 2) was 1050 L. It also gave a concentration at 8 h ([2]; oral, 50 mg single dose) of 7.83 ng/mL, a Tmax ([2]; oral, 50 mg single dose, median, read-out: Tmax) of 2 h and a Tmax ([2]; single oral doses 1 to 50 mg, fasted subjects, read-out: median Tmax, range across doses) of 1 to 2.5 h. For the same molecule, the “fold change in geometric mean AUC (AUClast) for 50-fold change in dose” value ([2]; single doses 1 to 50 mg) was 29 fold, the “fold change in geometric mean Cmax for 50-fold change in dose” value ([2]; single doses 1 to 50 mg) was 9 fold and the Tolerability ([3]; fed and fasted conditions) was “well tolerated”. For the same molecule, the “subjects reporting at least one AE (of 12)” value ([3]; three administrations) was 11.
